Measurements as given in the NIST ThermoML archive (doi:10.1016/j.tca.2013.06.040).

Columns and labels:
[1] = molar heat capacity at constant pressure; conditions: 101.33 kPa, Small sample (50 mg) DSC
[2] = DTA
[3] = Molar enthalpy of transition or fusion; conditions: DSC

O=[N+]([O-])[O-].[Li+] [lithium nitrate]
[1]
Conditions | molar heat capacity at constant pressure [J/K/mol]
310.7 K, Crystal | 63.7
315.7 K, Crystal | 56.8
320.6 K, Crystal | 117
325.6 K, Crystal | 114
330.6 K, Crystal | 80.3
335.6 K, Crystal | 72.2
340.6 K, Crystal | 63.4
345.6 K, Crystal | 78.2
350.6 K, Crystal | 88.7
355.6 K, Crystal | 83.5
360.6 K, Crystal | 80.8
365.6 K, Crystal | 81.5
370.6 K, Crystal | 75.6
375.6 K, Crystal | 79.1
380.6 K, Crystal | 77.3
385.6 K, Crystal | 80.7
390.6 K, Crystal | 81.1
395.6 K, Crystal | 83.9
400.6 K, Crystal | 87.5
405.5 K, Crystal | 86.4
410.5 K, Crystal | 81.9
415.5 K, Crystal | 90.3
420.5 K, Crystal | 87.1
425.5 K, Crystal | 86.2
430.5 K, Crystal | 91.5
435.6 K, Crystal | 94.4
440.6 K, Crystal | 95.6
445.5 K, Crystal | 88.4
450.5 K, Crystal | 93.6
455.4 K, Crystal | 90.4
460.3 K, Crystal | 93.1
465.4 K, Crystal | 96.3
470.5 K, Crystal | 97.4
475.5 K, Crystal | 91.5
480.6 K, Crystal | 94.5
485.5 K, Crystal | 95.6
490.5 K, Crystal | 99.4
495.5 K, Crystal | 102
500.5 K, Crystal | 98.8
505.5 K, Crystal | 103
510.5 K, Crystal | 110
515.5 K, Crystal | 125
520.5 K, Crystal | 127
535.5 K, Liquid | 114
540.5 K, Liquid | 122
545.5 K, Liquid | 122
550.5 K, Liquid | 125
555.5 K, Liquid | 117
560.5 K, Liquid | 121
570.5 K, Liquid | 122
575.5 K, Liquid | 123
580.5 K, Liquid | 116
585.5 K, Liquid | 121
590.5 K, Liquid | 119
595.5 K, Liquid | 122
600.5 K, Liquid | 119
610.5 K, Liquid | 113
615.5 K, Liquid | 120
620.5 K, Liquid | 110

Crystal
Conditions | Molar enthalpy of transition or fusion [kJ/mol] | Triple point temperature [K]
[2] | – | 525
[3] | 24.5 | –

O=[N+]([O-])[O-].[Rb+] [rubidium nitrate]
[1]
Conditions | molar heat capacity at constant pressure [J/K/mol]
325.6 K, Crystal 4 | 99
330.6 K, Crystal 4 | 99.5
335.6 K, Crystal 4 | 101
340.6 K, Crystal 4 | 102
345.6 K, Crystal 4 | 101
350.6 K, Crystal 4 | 101
355.6 K, Crystal 4 | 102
360.6 K, Crystal 4 | 100
365.6 K, Crystal 4 | 104
370.6 K, Crystal 4 | 104
375.6 K, Crystal 4 | 106
380.6 K, Crystal 4 | 107
385.6 K, Crystal 4 | 109
390.6 K, Crystal 4 | 109
395.6 K, Crystal 4 | 110
400.6 K, Crystal 4 | 111
405.6 K, Crystal 4 | 112
410.6 K, Crystal 4 | 113
415.6 K, Crystal 4 | 113
420.6 K, Crystal 4 | 114
425.5 K, Crystal 4 | 123
430.5 K, Crystal 4 | 118
435.5 K, Crystal 4 | 123
440.5 K, Crystal 3 | 833
445.5 K, Crystal 3 | 134
450.5 K, Crystal 3 | 134
455.5 K, Crystal 3 | 135
460.5 K, Crystal 3 | 136
465.5 K, Crystal 3 | 136
470.5 K, Crystal 3 | 138
475.5 K, Crystal 3 | 138
480.5 K, Crystal 3 | 138
485.5 K, Crystal 3 | 138
490.5 K, Crystal 3 | 139
495.5 K, Crystal 3 | 139
500.5 K, Crystal 2 | 303
505.5 K, Crystal 2 | 368
510.5 K, Crystal 2 | 175
515.5 K, Crystal 2 | 132
520.5 K, Crystal 2 | 134
525.5 K, Crystal 2 | 135
530.5 K, Crystal 2 | 136
535.5 K, Crystal 2 | 136
540.5 K, Crystal 2 | 136
545.5 K, Crystal 2 | 137
550.5 K, Crystal 2 | 161
555.5 K, Crystal 1 | 151
560.5 K, Crystal 1 | 399
565.5 K, Crystal 1 | 112
570.5 K, Crystal 1 | 113
575.5 K, Crystal 1 | 111
580.5 K, Crystal 1 | 115
585.5 K, Liquid | 744
590.5 K, Liquid | 249
595.5 K, Liquid | 157
600.5 K, Liquid | 140
605.5 K, Liquid | 138
610.5 K, Liquid | 138
615.5 K, Liquid | 138
620.5 K, Liquid | 137

Conditions | Molar enthalpy of transition or fusion, Crystal 1 [kJ/mol] | Molar enthalpy of transition or fusion, Crystal 2 [kJ/mol] | Molar enthalpy of transition or fusion, Crystal 3 [kJ/mol] | Molar enthalpy of transition or fusion, Crystal 4 [kJ/mol] | Triple point temperature, Crystal 1 [K] | Triple point temperature, Crystal 2 [K] | Triple point temperature, Crystal 3 [K] | Triple point temperature, Crystal 4 [K]
[2] | – | – | – | – | 583 | 555 | 500 | 437
[3] | 4.7 | 1.25 | 2.32 | 3.72 | – | – | – | –

O=[N+]([O-])[O-].O=[N+]([O-])[O-].[Li+].[Rb+] [lithium rubidium nitrate]
[1]
Conditions | molar heat capacity at constant pressure [J/K/mol]
315.6 K, Crystal | 150.8
320.6 K, Crystal | 166.6
325.6 K, Crystal | 171.8
330.6 K, Crystal | 190.8
335.6 K, Crystal | 179.2
340.6 K, Crystal | 184.8
345.6 K, Crystal | 184
350.6 K, Crystal | 200
355.6 K, Crystal | 204
360.6 K, Crystal | 222
365.6 K, Crystal | 222
370.6 K, Crystal | 190.6
375.6 K, Crystal | 206
380.6 K, Crystal | 189
385.6 K, Crystal | 196.4
390.5 K, Crystal | 206
395.5 K, Crystal | 224
400.5 K, Crystal | 191.4
405.5 K, Crystal | 210
410.5 K, Crystal | 195.4
420.5 K, Crystal | 206
425.5 K, Crystal | 224
435.5 K, Crystal | 232
445.5 K, Crystal | 262
460.5 K, Liquid | 374
470.5 K, Liquid | 346
475.5 K, Liquid | 342
480.5 K, Liquid | 364
485.5 K, Liquid | 382
490.5 K, Liquid | 384

Crystal
Conditions | Molar enthalpy of transition or fusion [kJ/mol] | Triple point temperature [K]
[2] | – | 460
[3] | 22.2 | –
